Results taken from patent US12158470B2, “Methods and compositions for live cell analysis of intracellular ATP” (Sartorius BioAnalytical Instruments, Inc., priority 2018, dated 2024).
Entries after “also recorded” stand apart in the source; their conditions may differ.

Assays:
[1] = test system: receptor-positive breast cancer lines; assay: Live cell ATP sensor imaging after compound treatment, receptor-positive breast cancer lines; assay type: cell-based
Experimental: (§1) Cancer cell lines stably expressing a genetically encoded, fluorescent ATP sensor or a control (non-ATP binding) sensor were generated. Cell lines were cultured in recommended media conditions except for studies evaluating the effects of the glutaminase-1 (GLS1) inhibitor CB-839, for which cells were adapted to RPMI supplemented with 10% FBS prior to experimentation. […] Cellular ATP levels were measured over the course of hours to days following compound treatment.
(§2) A live cell imaging approach was then utilized to evaluate the effect of cancer therapeutics on ATP levels in tumor cell lines, focusing primarily on compounds that target metabolic vulnerabilities. […] Quantification of phase confluence confirmed that sustained decreases in ATP were associated with enhanced antiproliferative efficacy compared to conditions under which recovery of ATP levels were observed.

[2] = test system: triple-negative breast cancer (TNBC) cell lines; assay: Live cell ATP sensor imaging after compound treatment, TNBC cell lines; assay type: cell-based
Experimental: as §1, §2

Which “effect on ATP levels” value ([1]; receptor-positive cell lines, mono-culture) does the source give for O=C(Cc1cccc(OC(F)(F)F)c1)Nc1ccc(CCCCc2nnc(NC(=O)Cc3ccccn3)s2)nn1 [CB-839] here?
Its value is “no change to more modest decreases in ATP”.

And the “time to recovery of ATP levels” value ([1]; receptor-positive cells)?
The value was no more than 48 h.

What about the “effect of co-culture on the ATP response” value ([1]; receptor-positive lines with CCD-1068Sk fibroblasts) of the same molecule?
Its value is “unaffected by the presence of CCD-1068Sk fibroblasts”.

What about the “effect on ATP levels in co-culture” value ([2]; TNBC cultured on a monolayer of CCD-1068Sk fibroblasts) of the same molecule?
Its value is “diminished effects on ATP levels; also recorded: attenuated by co-culture with CCD-1068Sk fibroblasts”.

And the “effect on ATP levels” value ([2]; TNBC, mono-culture, three-day time course)?
The value was “rapid drop in ATP; also recorded: remained below that of vehicle-treated cells for the duration of the three-day time course; also recorded: prolonged ATP depletion”.
